pIC50: −log10 of the molar value.
Tests used:
HTLA-ER cells [1] = conditions: cited from earlier work
[2] = system: HTLA-230 human stage-IV NB cells; conditions: 100 µM for 24 h; cited from earlier work
HTLA-ER cells [3] = assay: Cell viability assay (CellTiter 96 AQueous One Solution) on etoposide-resistant HTLA-ER NB cells; assay type: cell-based, human; conditions: average IC50 on three human normal oral cell lines (ref 69) / IC50 on HTLA-ER after 24 h (ref 58)
Source text: HTLA-230 human stage-IV NB cells were kindly provided by Dr. L. Raffaghello (G. Gaslini Institute, Genoa, Italy). The HTLA-ER cells were selected by treating HTLA-230 parental cells for six months with increasing concentrations of etoposide, as previously reported. Both cell populations were maintained in RPMI 1640 medium (Euroclone Spa, Pavia, Italy) supplemented with 10% fetal bovine serum (FBS, Euroclone Spa, Pavia, Italy), 1% L-glutamine (Euroclone Spa, Pavia, Italy), and 1% Penicillin/Streptomicin (Euroclone Spa, Pavia, Italy) and grown in standard conditions (37 °C humidified incubator with 5% CO2).
To determine the cytotoxic effects of BPPB, in vitro time- and dose-dependent experiments were carried out. Cells were first treated for 24, 48, and 72 h, with increasing concentrations (0.5–50 µM) of the compound. In a subsequent series of the experiments, cells were treated for 24, 48, and 72 h with increasing concentration of BPPB in the range of 0.1–2 µM. […] Cell cultures were carefully monitored before and during the experiments to ensure optimal cell density.
Cell viability was determined by using the CellTiter 96® AQueous One Solution Cell Proliferation Assay (Promega, Madison, WI, USA), as previously described. Briefly, cells (10,000 cells/well) were seeded into 96-well plates (Corning Incorporated, Corning, NY, USA) and then treated. Next, cells were incubated with 20 µL of CellTiter, and the absorbance at 490 nm was recorded using a microplate reader (EL-808, BIO-TEK Instruments Inc., Winooski, VT, USA). IC50 was evaluated by GraphPad Prism 5.4.2 Software (GraphPad Software, Boston, MA, USA).
Results are expressed as the means ± S.D. of at least four independent experiments in which six different wells were analyzed every time for each experimental condition. The statistical significance of differences was determined by two-way analysis of variances (ANOVA) followed by Tukey’s multicomparison test using GraphPad Prism 8.0 (GraphPad Software v8.0, San Diego, CA, USA); p < 0.05 was considered statistically significant. Asterisks or other indicators (see Figures captions) indicate the following p-value ranges: p > 0.05 no symbols, * = p < 0.05, ** = p < 0.01, *** = p < 0.001, **** = p < 0.0001.

For `COc1cc([C@@H]2c3cc4c(cc3[C@@H](O[C@@H]3O[C@@H]5CO[C@@H](C)O[C@H]5[C@H](O)[C@H]3O)[C@H]3COC(=O)[C@H]23)OCO4)cc(OC)c1O` [ETO, etoposide], the “Cell viability HTLA-ER” value (HTLA-ER cells [1]; 100 µM for 24 h) is given as “over 80%”, the pIC50 (HTLA-ER cells [1]; 24 h of exposure, read-out: Extrapolated IC50 on HTLA-ER) is given as 3.23 and the “Cell viability HTLA-230” value [2] is given as roughly 70%. For the same compound, the “Etoposide SI for HTLA-ER NB cells” value (HTLA-ER cells [3]) was 0.32.

Reference: article PMC11434613, “The Remarkable and Selective In Vitro Cytotoxicity of Synthesized Bola-Amphiphilic Nanovesicles on Etoposide-Sensitive and -Resistant Neuroblastoma Cells” (Nanomaterials, 2024)
